Results from patent US20250257146A1, “ANTI-TROP2 ANTIBODY-DRUG CONJUGATE” (DAIICHI SANKYO COMPANY, LIMITED, priority 2013, published 2025).

What was measured:
[1] = Self-degradation of released drug derivative with aminal structure; assay type: physicochemical
topoisomerase I = target: T1, topoisomerase I (Homo sapiens, UniProt P11387); details: compared with SN-38 and topotecan; cited from earlier work
T1 sequence (P11387 1-765): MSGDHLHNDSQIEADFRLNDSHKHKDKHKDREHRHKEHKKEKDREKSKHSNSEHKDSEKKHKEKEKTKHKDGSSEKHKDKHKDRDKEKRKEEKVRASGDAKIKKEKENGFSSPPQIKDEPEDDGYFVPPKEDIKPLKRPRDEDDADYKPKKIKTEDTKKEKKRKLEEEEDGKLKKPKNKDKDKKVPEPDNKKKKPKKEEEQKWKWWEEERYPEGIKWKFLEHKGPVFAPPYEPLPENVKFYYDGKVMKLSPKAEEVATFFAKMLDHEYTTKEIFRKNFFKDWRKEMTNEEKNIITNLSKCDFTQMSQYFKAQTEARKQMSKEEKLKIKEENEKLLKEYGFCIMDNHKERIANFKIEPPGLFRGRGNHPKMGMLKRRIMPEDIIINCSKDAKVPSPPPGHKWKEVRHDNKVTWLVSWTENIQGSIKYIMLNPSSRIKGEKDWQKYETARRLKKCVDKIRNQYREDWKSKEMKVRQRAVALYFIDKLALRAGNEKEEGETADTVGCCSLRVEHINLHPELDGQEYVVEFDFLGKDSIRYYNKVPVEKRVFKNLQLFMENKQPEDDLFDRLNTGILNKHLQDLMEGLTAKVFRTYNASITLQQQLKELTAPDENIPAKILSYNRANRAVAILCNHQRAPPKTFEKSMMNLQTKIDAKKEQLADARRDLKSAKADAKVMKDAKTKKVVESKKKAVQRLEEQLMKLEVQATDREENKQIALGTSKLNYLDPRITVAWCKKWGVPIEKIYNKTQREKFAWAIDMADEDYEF

various cancer cells = details: against various cancer cells; cited from earlier work
human tumor = human tumor subcutaneously transplanted mouse model; cited from earlier work
[2] = target: T2, CHOK1 cells expressing human TROP2 (Homo sapiens, UniProt P09758); assay: FACS analysis of TINA1 antibody on TROP2-overexpressing cells; assay type: cell-based
T2 construct: expressed in transfected cells; host or cells: CHOK1
T2 sequence (P09758 27-323): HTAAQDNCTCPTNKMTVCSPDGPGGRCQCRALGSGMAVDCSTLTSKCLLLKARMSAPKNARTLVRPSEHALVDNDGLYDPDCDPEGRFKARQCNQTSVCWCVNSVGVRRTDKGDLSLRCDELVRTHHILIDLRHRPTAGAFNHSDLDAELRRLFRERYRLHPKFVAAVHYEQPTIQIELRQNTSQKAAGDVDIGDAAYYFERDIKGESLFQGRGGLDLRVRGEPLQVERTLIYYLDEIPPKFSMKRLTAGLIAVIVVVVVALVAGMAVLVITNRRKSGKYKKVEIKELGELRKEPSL
Description: Because the antigen of the TINA1 antibody was predicted to be TROP2 from the band pattern, overexpression analysis by gene transfer of cDNA was conducted without mass spectrometry. […] Similar FACS analysis was conducted using a lung cancer cell line PC14, a lung cancer cell line NCI-H322, a lung cancer cell line NCI-H2122, a lung cancer cell line LCAM1, a lung cancer cell line LC2/ad, a pancreatic cancer cell line MIAPaCa2, a pancreatic cancer cell line PK-1, a prostate cancer cell line PC3, a colorectal cancer cell line HCT116, a melanoma cell line A375, an ovarian cancer cell line SKOV3, a hematopoietic tumor cell line RPMI8226, a hematopoietic tumor cell line K562, PBMC (human peripheral blood mononuclear cells), and human platelet. All of the examined lung cancer cell lines were TROP2-positive, and PC3, PK1, and SKOV3 were positive as the cell lines except for the lung cancer ones. On the other hand, all of the normal blood cells were negative.

NCI-H322 cells = assay: Internalization activity and immunotoxin activity using DT3C; assay type: cell-based, human
Text: 4-1) Antibody internalization activity evaluation system A recombinant fusion protein DT3C was produced for the purpose of measuring internalization activity and immunotoxin activity of an antibody. This DT3C is a protein having a catalytic domain of diphtheria toxin (DT) and three antibody-binding regions of protein G. DT3C specifically binds to an Fc moiety of an antibody, is stable, and induces cell death by inhibiting protein synthesis when taken up into cells. By use of this system, the internalization effect of antibody and the cytocidal effect thereof by immunotoxin can be observed at the same time (Yamaguchi, M., Hamada, H., et al., Biochemical and Biophysical Research Communications 454 (2014) 600-603).
4 μg/mL of DT3C was added at 25 μL/well to a 96-well plate, further the culture supernatants of 11 hybridomas obtained by the method of Example 1 or a method equivalent thereto were each added at 25 μL/well to the plate, and the plate was incubated at room temperature for 30 minutes. […] After incubation for 1 hour in a CO2 incubator of 37° C., the number of live cells was measured using a microplate reader (OD450 to OD640, infinite 200, Tecan Trading AG).
Each diluted solution of DT3C (0, 0.004, 0.04, 0.4, 4, or 40 μg/mL) was added at 25 μL/well to a 96-well plate, then each antibody (40 μg/mL) was added at 25 μL/well to the plate, and the plate was incubated at room temperature for 30 minutes. […] After incubation for 1 hour in a CO2 incubator of 37° C., the number of live cells was measured using a plate reader (OD450 to OD640).
Anti-TROP2 antibodies TINA1 (immunogen: lung cancer line NCI-H322), KCL7A3 and KCL2D6 (immunogen: pancreatic cancer cell line KCL-MOH1), Pr1E11 and Pr8H10 (immunogen: prostate cancer cell line Pc-1), and NY16 and NY17 (immunogen: pancreatic cancer cell line PK-1) obtained by the method of Example 1 or a method equivalent thereto, and commercially available 77220 (R&D Systems Inc.) were evaluated for their internalization activity and immunotoxin activity in the same manner as in Example 4-3).

CCC1(O)C(=O)OCc2c1cc1n(c2=O)Cc2c-1nc1cc(F)c(C)c3c1c2C(NC(=O)COCN)CC3 (centres unmarked) [NH2—CH2—O—CH2—C(═O)—(NH-DX)]
stability of the aminal structure (self-degradation to HO—CH2—C(═O)—(NH-DX)) [1]: unstable

CC[C@@]1(O)C(=O)OCc2c1cc1n(c2=O)Cc2c-1nc1cc(F)c(C)c3c1c2[C@@H](N)CC3 [exatecan, (1S,9S)-1-amino-9-ethyl-5-fluoro-2,3-dihydro-9-hydroxy-4-methyl-1H,12H-benzo[de]pyrano[3′,4′:6,7]indolizino[1,2-b]quinolin-10,13(9H,15H)-dione]
inhibitory activity on topoisomerase I (topoisomerase I): higher than SN-38
in vitro cytocidal activity (various cancer cells): higher in vitro cytocidal activity
antitumor effect (human tumor): potent antitumor effect

B1: TINA1: antibody produced by the TROP2 hybridoma TINA1; mouse anti-TROP2 monoclonal antibody (antibody, listed as Mus musculus, V domains shown)
VH: QIQLVQSGPELKKPGETVRISCKASGYTFTTAGMQWVQKMPGKGLKWIGWINTHSGVPKYAEDFKGRFAFSLETSASTAYLQISNLKNEDTTTYFCARSGFGSSYWYFDVWGAGTAVTVSS
VL: DIVMTQSHKFMSTSVGDRVSITCKASQDVSTAVAWYQQKPGQSPKLLIYSASYRYTGVPDRFTGSGSGTAFTFTISSVQAEDLAVYYCQQHYITPLTFGAGTKLELKRA
FACS response [2]: strong positive response
internalization activity and immunotoxin activity (NCI-H322 cells; among the 8 anti-TROP2 antibodies, as Example 4-3, FIG. 12): strongest activity
internalization activity and immunotoxin activity (NCI-H322 cells; antibody 40 μg/mL + DT3C 0-40 μg/mL, among antibodies against CD59, CD71, EGFR, EpCAM, TROP2, FIG. 11): strongest internalization activity and immunotoxin activity
internalization activity and immunotoxin activity (NCI-H322 cells; hybridoma culture supernatant + DT3C 4 μg/mL, NCI-H322 cells, 3 days, FIG. 10): strong internalization activity and immunotoxin activity
